From patent US20210052547A1 (priority 2016, published 2021)

Tests used:
[1] = tested on: rats exposed to ethylene glycol; assay: murine model of ethylene glycol poisoning; format: in vivo, rat
Method: A murine model of ethylene glycol poisoning has been prepared by giving 6 g/kg ethylene glycol orally once to twelve adult Sprague-Dawley rats (single oral administration).
Rats have been sacrificed 48 hours after ethylene glycol intake, blood and urine parameters have been collected and kidneys have been removed for histopathological analyses.

[2] = tested on: calcium-oxalate kidney stone murine model; assay: calcium-oxalate kidney stone murine model (calcium chloride and hydroxyproline in drinking water); format: in vivo, rat; settings: Stiripentol 4 g/L in drinking water (about 150 mg/Kg), 4 months, versus controls
Excerpt: A calcium-oxalate kidney stone murine model has been generated. […] The rats have been exposed for 4 month to this diet. […] Rats have been sacrificed at the end of the protocol and kidneys have been removed for analyses.

[3] = biological target: lactate dehydrogenase 1 (LDH-1) (Homo sapiens, UniProt P07195); settings: in neurons; cited from earlier work
Chain of lactate dehydrogenase 1 (LDH-1) (P07195 2-334 limits assumed): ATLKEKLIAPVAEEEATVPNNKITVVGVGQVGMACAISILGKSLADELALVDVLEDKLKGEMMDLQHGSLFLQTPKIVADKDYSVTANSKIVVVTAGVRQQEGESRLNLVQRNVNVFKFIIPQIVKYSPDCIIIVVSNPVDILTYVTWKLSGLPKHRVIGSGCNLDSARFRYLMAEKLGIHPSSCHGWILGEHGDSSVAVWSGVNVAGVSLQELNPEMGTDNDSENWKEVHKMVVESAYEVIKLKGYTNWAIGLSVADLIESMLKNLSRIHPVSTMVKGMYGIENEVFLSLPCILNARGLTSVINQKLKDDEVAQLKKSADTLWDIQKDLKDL

CYP1A2 = CYP1A2 (Homo sapiens, UniProt P05177); settings: cited from earlier work
Chain of CYP1A2 (P05177 whole entry): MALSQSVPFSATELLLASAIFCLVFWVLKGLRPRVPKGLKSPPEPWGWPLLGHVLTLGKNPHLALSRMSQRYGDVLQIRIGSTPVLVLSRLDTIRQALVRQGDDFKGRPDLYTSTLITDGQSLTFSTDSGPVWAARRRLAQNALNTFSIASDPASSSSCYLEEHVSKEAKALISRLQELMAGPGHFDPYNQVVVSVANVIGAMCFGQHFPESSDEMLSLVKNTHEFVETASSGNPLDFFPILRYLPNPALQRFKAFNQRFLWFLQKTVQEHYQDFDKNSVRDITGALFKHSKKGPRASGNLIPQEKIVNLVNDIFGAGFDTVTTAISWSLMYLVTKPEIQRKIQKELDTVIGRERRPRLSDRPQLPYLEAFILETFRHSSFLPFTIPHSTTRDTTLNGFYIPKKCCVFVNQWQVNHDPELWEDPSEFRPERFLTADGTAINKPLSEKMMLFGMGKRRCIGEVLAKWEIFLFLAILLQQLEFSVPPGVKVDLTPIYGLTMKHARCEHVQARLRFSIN

CYP3A4 = CYP3A4 (Homo sapiens, UniProt P08684); settings: cited from earlier work
Chain of CYP3A4 (P08684 whole entry): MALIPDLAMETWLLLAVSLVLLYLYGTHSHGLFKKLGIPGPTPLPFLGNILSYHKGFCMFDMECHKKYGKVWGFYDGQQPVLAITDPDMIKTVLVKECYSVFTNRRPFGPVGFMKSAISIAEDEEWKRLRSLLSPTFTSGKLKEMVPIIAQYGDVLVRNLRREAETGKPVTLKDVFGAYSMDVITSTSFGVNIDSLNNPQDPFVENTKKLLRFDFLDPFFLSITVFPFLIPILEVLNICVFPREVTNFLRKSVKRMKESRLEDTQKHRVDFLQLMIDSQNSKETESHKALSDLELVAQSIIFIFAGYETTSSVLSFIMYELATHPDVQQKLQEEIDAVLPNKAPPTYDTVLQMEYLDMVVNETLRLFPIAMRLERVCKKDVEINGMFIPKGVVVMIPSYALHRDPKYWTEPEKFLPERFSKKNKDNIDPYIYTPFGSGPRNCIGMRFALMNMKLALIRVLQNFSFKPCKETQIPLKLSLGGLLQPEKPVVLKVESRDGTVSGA

[4] = tested on: uptake of gamma-aminobutyric acid (GABA); settings: cited from earlier work
[5] = biological target: lactate dehydrogenase 5 (LDH-5) (Homo sapiens, UniProt P00338); settings: in neurons; cited from earlier work

Compound	calcium oxalate crystals in kidneys (histopathology, kidney section coverage) ([1]; 6 g/kg ethylene glycol orally once, Stiripentol 300 mg/kg at intoxication and 4 g/L in drinking water days 1 and 2, 48 hours, p=0.0046)	urinary oxalate excretion induced by ethylene glycol poisoning ([1]; Stiripentol at therapeutic range)	renal function assessed by serum creatinine levels ([1]; ethylene glycol intoxicated rats, Stiripentol 300 mg/kg then 4 g/L in drinking water, 48 hours, p=0.009)	calcium oxalate crystals in urine [2]	renal function assessed by serum creatinine levels ([2]; p=0.002)	inhibition of pyruvate to lactate conversion by LDH-1 [3]	inhibition of CYP1A2 (CYP1A2)	inhibition of CYP3A4 (CYP3A4)	inhibition of the uptake of GABA [4]	inhibition of pyruvate to lactate conversion by LDH-5 [5]
CC(C)(C)C(O)/C=C/c1ccc2c(c1)OCO2 (racemic) [Stiripentol, 4,4-dimethyl-1-[(3,4-methylenedioxy)-phenyl]-1-penten-3-ol]	much less crystals	decreases urinary oxalate excretion	remarkably less impaired	less calcium oxalate crystals in urine	preserved renal function	inhibit	inhibitor	inhibitor	inhibits	–
C/C=C/c1ccc2c(c1)OCO2 [Isosafrole, 3,4-methylenedioxyphenyl-1-propene]	–	–	–	–	–	inhibit	–	–	–	inhibit
